The text below walks through data of patent US11932850B2, “Cancer chemoprevention with STAT3 blockers” (Jill M. Siegfried, LLC, priority 2018, dated 2024).

Data set [1] addresses T1, pSTAT3-ubiquitin complexes in H1975 cells (Homo sapiens, UniProt P40763).
T1 construct: Post-transfection with either 100 nM CS3D or CS3M, H1975 were lysed in IP lysis buffer; endogenous in cells; host or cells: H1975
Put plainly: p-STAT3 immunoprecipitation and ubiquitin immunoblot. The data set is classed as cell-based. The note with it: H1975, 100 nM, 24 hr post-transfection. Background: Immunoblotting shows a protein as a band on a membrane.

The subject of data set [2] is c-Myc in H1975-derived tumors. Put plainly: c-Myc expression in H1975 xenograft tumors (Western blot). The note with it: H1975 xenograft tumors, range among individual tumors. It is filed as in vivo, nude mice. The method, then:
FIGS. 7C and 7D show c-Myc is suppressed after CS3D treatment in vivo. At the end of the treatments, tumors were harvested, whole cell lysates were prepared and RNA extracted for target gene analysis by Western blotting and RT-qPCR GAPDH protein was used as internal loading control for immunoblotting. CS3D treated tumors (C4, C5, and C6) from separate animals show a decrease in c-Myc expression level relative to the CS3M-treated group (C1, C2, and C3) in 201T. […] Data are shown as mean+/−SEM.
To determine how CS3D blocks NSCLC growth, Western blot, qRT-PCR, and immunohistochemical analysis were performed to determine expression of c-Myc in residual tumors. These analyses identified a substantial downregulation of c-Myc protein (FIGS. 7C and 7D) and mRNA levels (FIG. 7E) in individual CS3D-treated tumors relative to CS3M-treated tumors in both 201T and H1975 xenografts. Some variability in protein levels among individual xenografts was observed (FIGS. 7C and 7D); the densitometry units for c-Myc protein after normalizing for GAPDH levels ranged from 0.11-0.16 units for CS3D-treated xenografts and 0.25-0.46 units for CS3M-treated tumors in H1975. Similarly, in 201T-derived tumors these measurements ranged from 0.015 to 0.51 units for CS3D and 0.28 to 0.97 units for CS3M. Even with this variability, the effect across the groups in both cell lines was significant (P<0.05 for H1975 and P<0.042 for 201T xenografts), with a mean decrease of 65% and 70%, respectively.

For data set [3], the system named is cleaved caspase-3 in H1975 xenografts. Put plainly: IHC of cleaved caspase-3 in H1975 xenografts at end of treatment. It is filed as in vivo, nude mice. The note with it: after last day of treatment (day 14). The source says: For mRNA levels in tumor lysates, CS3D produced a 60-70% reduction of c-Myc gene expression relative to GAPDH compared to CS3M (FIG. 7E). […] Some cleaved caspase 3 staining was localized in nuclei, where caspase-3 is known to be active. Some caspase 3 staining was also evident in fibroblasts.
Immunohistochemical analysis: Tumors were excised for immunohistochemical (IHC) staining; 5-μm (micron) sections were cut from formalin-fixed paraffin-embedded tissue blocks, deparaffinized and rehydrated using successive washes of xylene followed by ethanol. Antigen retrieval was performed in a microwave oven (for 20 minutes) in an unmasking solution containing sodium citrate buffer followed by peroxidase blocking in 3% hydrogen peroxide. The sections were incubated in ABC blocking buffer (Vector laboratories Inc, Burlingame, California) for 1 hour at room temperature. Sections were then stained with H&E (hematoxylin and eosin) or subjected to sequential incubations with different primary antibodies and peroxidase-conjugated goat anti-rabbit secondary antibodies. […] Staining was graded as low (<30% positive cells per field, scored as 1), moderate (30-60% positive cells per field, scored as 2) or high (>60% positive cells per field, scored as 3).

The test system of data set [4] is Ki-67, p-STAT3, NF-κB in H1975 xenografts. Put plainly: IHC of H1975 xenografts after 5 daily iv injections. The data set is classed as in vivo, nude mice. The note with it: H1975 xenografts. The procedure: Because tumors treated for several weeks with the STAT3 decoy were largely composed of debris (as illustrated in FIG. 11), xenografts were examined after only 5 daily tail vein injections to determine what cellular changes were induced prior to collapse of the intracellular tumor structure. […] Tumors derived from H1975 xenografs were analyzed by immunohistochemical staining for p-STAT3 after 5 daily iv injections of either STAT3 decoy or mutant decoy. […] This effect is quantified in FIG. 9B.
Images were captured at 40× magnification. A shift from 41% of cells was observed and scored as high-grade staining with CS3M treatment to 13% with high-grade staining in the presence of CS3D, with corresponding increases in moderate- and low-grade staining in the STAT3 decoy treated group (FIG. 12B). […] Bright field images were captured at 40× magnification. Frequency of high-grade staining for p-STAT3 differed between CS3D and CS3M treatment groups (23% in CS3D-treated and 51% in CS3M treated, with corresponding increase in low-grade staining in presence of the active decoy (FIG. 9B). Significant degradation of p-STAT3 protein was detected by IHC in tumors was observed after treatment with CS3D. Percent of high staining fields was reduced from 48% to 22% while percent of fields with low staining increased, P<0.001 (FIG. 9B).
Immunohistochemical analysis: Tumors were excised for immunohistochemical (IHC) staining; 5-μm (micron) sections were cut from formalin-fixed paraffin-embedded tissue blocks, deparaffinized and rehydrated using successive washes of xylene followed by ethanol. Antigen retrieval was performed in a microwave oven (for 20 minutes) in an unmasking solution containing sodium citrate buffer followed by peroxidase blocking in 3% hydrogen peroxide. The sections were incubated in ABC blocking buffer (Vector laboratories Inc, Burlingame, California) for 1 hour at room temperature. Sections were then stained with H&E (hematoxylin and eosin) or subjected to sequential incubations with different primary antibodies and peroxidase-conjugated goat anti-rabbit secondary antibodies. The following primary antibodies were used (at the indicated dilutions): cleaved caspase-3 (#9664, Cell Signaling, 1:300), p-STAT3 (#9145, Cell Signaling, 1:400), Ki67 (#ab15580, Abcam, 1:1000). Sections were developed with DAB and counterstained with hematoxylin. Bright field microscopy was performed using Leica DM 4000 B LED microscope and images were captured at 20× and 40× magnification using LASv4.7 software. IHC analysis was done as a blinded study with 100 images from each treatment group graded as low, moderate, or high. Staining was graded as low (<30% positive cells per field, scored as 1), moderate (30-60% positive cells per field, scored as 2) or high (>60% positive cells per field, scored as 3).

Data set [5] relates to M1 macrophages, M2 macrophages, MDSCs. Put plainly: Flow cytometry of immune cells isolated from lungs of NNK mice. The data set is classed as in vivo. To be noted: NNK 4 weeks then 1 week of drug administration. The text has this:
STAT3 also plays a central role in immune evasion. STAT3 specifically orchestrates immunosuppression by promoting M2 macrophage and myeloid-derived suppressor cells (MDSCs) activity while suppressing M1 macrophage function [Su et al. Int. J. Mol. Science 19: pll:E1803, 2018]. Thus STAT3 inhibition by CS3D should favor an antitumor immune response by enhancing M1 macrophage activity.
Lungs from mice were digested with RPMI media containing collagenase and DNase to obtained single cell suspension. The cells were counted and 1×10^6 cells were staining with fluorescent labeled CD45, CD11b, MHC II, Ly6C and F4/80. The labeled cells were gated and data acquired on LSR fortessa (BD Biosciences) and further analysed by Flowjo.

The target in a further data set is STAT3 (Homo sapiens, UniProt P40763). To be noted: Leong et al., 2003; cited from earlier work.
Sequence of STAT3 (P40763 whole entry, species assumed): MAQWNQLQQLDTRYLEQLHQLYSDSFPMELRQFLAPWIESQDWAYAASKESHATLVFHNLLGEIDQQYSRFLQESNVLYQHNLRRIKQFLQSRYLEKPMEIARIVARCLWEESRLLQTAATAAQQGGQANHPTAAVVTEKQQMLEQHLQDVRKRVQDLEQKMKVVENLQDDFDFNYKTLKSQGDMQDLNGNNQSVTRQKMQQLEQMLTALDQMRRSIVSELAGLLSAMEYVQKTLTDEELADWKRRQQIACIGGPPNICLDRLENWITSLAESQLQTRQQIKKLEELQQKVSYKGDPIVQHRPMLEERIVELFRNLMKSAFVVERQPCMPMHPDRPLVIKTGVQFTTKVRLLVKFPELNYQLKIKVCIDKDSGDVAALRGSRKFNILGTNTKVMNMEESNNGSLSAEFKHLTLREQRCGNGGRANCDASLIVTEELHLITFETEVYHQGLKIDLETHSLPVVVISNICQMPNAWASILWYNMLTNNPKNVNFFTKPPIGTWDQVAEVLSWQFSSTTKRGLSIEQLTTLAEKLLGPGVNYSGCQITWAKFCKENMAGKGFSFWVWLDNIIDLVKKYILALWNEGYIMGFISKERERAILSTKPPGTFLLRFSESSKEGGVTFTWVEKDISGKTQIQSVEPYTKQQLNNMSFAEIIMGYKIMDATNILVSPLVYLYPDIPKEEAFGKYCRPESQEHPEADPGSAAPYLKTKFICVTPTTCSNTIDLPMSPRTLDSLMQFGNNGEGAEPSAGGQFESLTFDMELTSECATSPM

T1 sequence (P40763 2-770 limits assumed, one chain of several): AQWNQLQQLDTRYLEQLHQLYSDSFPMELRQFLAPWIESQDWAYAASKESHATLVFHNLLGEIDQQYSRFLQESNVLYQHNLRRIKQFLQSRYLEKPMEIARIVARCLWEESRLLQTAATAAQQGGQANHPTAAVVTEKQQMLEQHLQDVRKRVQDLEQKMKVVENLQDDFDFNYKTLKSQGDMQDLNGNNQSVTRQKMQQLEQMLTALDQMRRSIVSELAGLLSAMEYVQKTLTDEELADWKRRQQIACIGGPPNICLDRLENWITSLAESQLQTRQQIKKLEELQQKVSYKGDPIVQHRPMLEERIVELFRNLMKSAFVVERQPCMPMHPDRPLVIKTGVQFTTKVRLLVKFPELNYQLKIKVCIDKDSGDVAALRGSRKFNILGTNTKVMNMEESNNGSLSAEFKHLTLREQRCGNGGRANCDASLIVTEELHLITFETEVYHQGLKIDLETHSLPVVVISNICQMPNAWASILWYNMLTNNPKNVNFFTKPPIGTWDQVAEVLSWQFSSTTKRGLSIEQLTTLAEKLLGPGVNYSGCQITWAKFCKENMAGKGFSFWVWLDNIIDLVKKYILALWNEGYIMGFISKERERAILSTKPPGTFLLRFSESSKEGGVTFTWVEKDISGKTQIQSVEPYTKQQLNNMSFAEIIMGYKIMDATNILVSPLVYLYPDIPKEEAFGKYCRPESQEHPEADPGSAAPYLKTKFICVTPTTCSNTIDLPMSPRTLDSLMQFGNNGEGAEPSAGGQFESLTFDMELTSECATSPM

Take “CS3M: mutant inactive control of CS3D, T-A base pair replacing G-C base pair at position 9 (SEQ ID NO. 6); unable to bind STAT3 (GATTTAAGGGAAATGCSCATTTCCC; cyclic decoy, mutant control, further chemistry not given here) [reference compound]”: in data set [1], the “ratio of pSTAT3-ubiquitin complex to STAT3 (densitometry)” value worked out at 0.74. For the same substance, the “c-Myc protein densitometry normalized for GAPDH” value in data set [2] is recorded as 0.25-0.46 units. In addition, the “fields scoring high level of cleaved caspase-3” value in data set [3] was 10%. Moreover, in data set [4] (5 daily injections), the Ki-67 high-grade staining came out at 41%. Further, the “frequency of high-grade staining for p-STAT3” value in data set [4] (5 daily iv injections) is given as 51%. In addition, the “percent of high staining fields for p-STAT3” value in data set [4] (second statement in b134 (FIG. 9B)) was determined as 48%. In data set [5], this substance gave an M2 macrophages of 18.3% and an MDSCs of 4.56%. For the same substance, in the data set with STAT3, the “binding to STAT3” value is “unable to bind STAT3”.
